Results published in patent publication US12042564B2, “Therapeutic solid dosage forms” (CYBIN UK LTD, priority 2020, dated 2024).
Where “and” joins values, the source holds several entries; their conditions need not be identical. Identical values can stand only once.

How the values were obtained:
[1] = tested on: human liver mitochondrial fraction; test: Intrinsic clearance and half-life in human liver mitochondrial fraction; format: in vitro ADME; conditions: 0.5 mg/mL human liver mitochondrial fraction, 1 μM test compounds
Description: Use of Liver Mitochondrial Fraction to Model Human Metabolism of Deuterated DMT

[2] = Initial solubility test of DMT fumarate in aqueous vehicles; format: physicochemical
Experimental: Solubility of DMT fumarate was assessed at a concentration of 10 mg/ml in a small selection of aqueous vehicles (water, saline, 20 mM phosphate buffer and a combination of buffer and saline).
Phosphate buffer (100 ml) was prepared using 219.53 mg of the dibasic form [HPO4][Na]2 with 183.7 mg of the monobasic form [H2PO4]Na, both dihydrate salts. The solution was adjusted to pH 7.0 with addition of NaOH (1 M) and then made to volume. 10 ml of a 10 mg/ml formulation was prepared.
To prepare this, sodium chloride was first dissolved in water to produce the saline solution (100 ml, 0.45% w/v). The phosphate salts, in the quantities described above, were then dissolved in the saline solution and the pH was adjusted using NaOH (1 M).
The pH of these solutions was in the range 3-4.

[3] = cited from earlier work
[4] = Plasma IAA metabolite levels after oral dosing in rats; conditions: for Estimated IAA Concentration / Estimated IAA Concentration, Mean: rat plasma, PO Dose (25 mg/kg); for Estimated IAA Concentration: individual animal; for Estimated IAA Concentration, Mean: mean of animals
[5] = Plasma pharmacokinetics of test compound after oral dosing in rats; conditions: rat plasma; for Determined Concentration of test compound in plasma / Determined Concentration of test compound in plasma, Mean: oral dosing; for Determined Concentration of test compound in plasma: individual animal; for Determined Concentration of test compound in plasma, Mean: mean of 3 animals
[6] = Solubility of DMT fumarate at different pH values in Britton-Robinson buffer; conditions: before pH adjustment

CN(C)CCc1c[nH]c2ccccc12.O=C(O)/C=C/C(=O)O [SPL026, N,N-dimethyltryptamine (DMT) fumarate salt]
Half-life (min) R1 ([1]; 5 μM Serotonin and Benzylamine controls, replicate 1): 8.8 min
Half-life (min) Mean ([1]; 5 μM controls, mean of replicates): 8.3 min
Half-life (min) R3 ([1]; 5 μM controls, replicate 3): 7.6 min
Half-life (min) R4 ([1]; 5 μM controls, replicate 4): 8.3 min
pH of these solutions ([2]; 10 mg/ml in aqueous vehicles): 3-4
Solubility at a concentration of 10 mg/ml in aqueous vehicles ([2]; water, saline, 20 mM phosphate buffer, buffer and saline): readily soluble
predicted half-life in humans ([3]; humans): 5 min
duration of action ([3]; psychedelic effect): under 20 minutes
Mean IAA Cmax ([4]; rat plasma IAA (semi quantified) after 25 mg/kg PO of the compound): 9.204 ng/mL
Mean IAA tmax ([4]; rat plasma IAA after 25 mg/kg PO of the compound): 30 min
Estimated IAA Concentration ([4]; 1 min): BLQ
Estimated IAA Concentration, Mean ([4]; 1 min): BLQ
Estimated IAA Concentration ([4]; 5 min, fumarate salt, 25 mg/kg): 0.549 ng/mL and 1.33 ng/mL and 1.64 ng/mL
Estimated IAA Concentration, Mean ([4]; 5 min): 1.171 ng/mL
Estimated IAA Concentration ([4]; 10 min, fumarate salt, 25 mg/kg): 1.08 ng/mL and 2.58 ng/mL and 4.39 ng/mL
Estimated IAA Concentration, Mean ([4]; 10 min): 2.683 ng/mL
Estimated IAA Concentration ([4]; 15 min, fumarate salt, 25 mg/kg): 1.82 ng/mL and 5.55 ng/mL and 6.09 ng/mL
Estimated IAA Concentration, Mean ([4]; 15 min): 4.487 ng/mL
Estimated IAA Concentration ([4]; 30 min, fumarate salt, 25 mg/kg): 7.08 ng/mL and 11.8 ng/mL and 8.88 ng/mL
Estimated IAA Concentration, Mean ([4]; 30 min): 9.245 ng/mL
Estimated IAA Concentration ([4]; 45 min, fumarate salt, 25 mg/kg): 5.10 ng/mL and 6.44 ng/mL and 9.98 ng/mL
Estimated IAA Concentration, Mean ([4]; 45 min): 7.174 ng/mL
Estimated IAA Concentration ([4]; 60 min, fumarate salt, 25 mg/kg): 6.18 ng/mL and 9.74 ng/mL and 11.7 ng/mL
Estimated IAA Concentration, Mean ([4]; 60 min): 9.204 ng/mL
Estimated IAA Concentration ([4]; 120 min, fumarate salt, 25 mg/kg): 7.40 ng/mL and 7.70 ng/mL and 8.67 ng/mL
Estimated IAA Concentration, Mean ([4]; 120 min): 7.924 ng/mL
Estimated IAA Concentration ([4]; 180 min, fumarate salt, 25 mg/kg): 4.34 ng/mL and 2.53 ng/mL and 3.08 ng/mL
Estimated IAA Concentration, Mean ([4]; 180 min): 3.316 ng/mL
Estimated IAA Concentration ([4]; Predose): BLQ
Estimated IAA Concentration, Mean ([4]; Predose): BLQ
mean Cmax ([5]; 25 mg/kg single oral gavage): 27.9 ng/mL
Determined Concentration of test compound in plasma ([5]; 1 min, fumarate salt): BLQ (Below the lower limit of quantification 0.310 ng/mL) (2×) and 0.391 ng/mL
Determined Concentration of test compound in plasma, Mean ([5]; 1 min): <0.3 ng/mL
Determined Concentration of test compound in plasma ([5]; 5 min, fumarate salt): BLQ (Below the lower limit of quantification 0.310 ng/mL) (2×) and 0.590 ng/mL
Determined Concentration of test compound in plasma, Mean ([5]; 5 min): <0.4 ng/mL
Determined Concentration of test compound in plasma ([5]; 10 min, fumarate salt): BLQ (Below the lower limit of quantification 0.310 ng/mL) and 4.06 ng/mL and 20.7 ng/mL
Determined Concentration of test compound in plasma, Mean ([5]; 10 min): <8.4 ng/mL
Determined Concentration of test compound in plasma ([5]; 15 min, fumarate salt): 0.763 ng/mL and 19.9 ng/mL and 25.7 ng/mL
Determined Concentration of test compound in plasma, Mean ([5]; 15 min): 15.5 ng/mL
Determined Concentration of test compound in plasma ([5]; 30 min, fumarate salt): 7.77 ng/mL and 25.2 ng/mL and 29.5 ng/mL
Determined Concentration of test compound in plasma, Mean ([5]; 30 min): 20.8 ng/mL
Determined Concentration of test compound in plasma ([5]; 45 min, fumarate salt): 18.0 ng/mL and 18.5 ng/mL and 28.6 ng/mL
Determined Concentration of test compound in plasma, Mean ([5]; 45 min): 21.7 ng/mL
Determined Concentration of test compound in plasma ([5]; 60 min, fumarate salt): 16.9 ng/mL and 31.6 ng/mL and 34.1 ng/mL
Determined Concentration of test compound in plasma, Mean ([5]; 60 min): 27.5 ng/mL
Determined Concentration of test compound in plasma ([5]; 120 min, fumarate salt): 13.7 ng/mL and 11.7 ng/mL and 16.9 ng/mL
Determined Concentration of test compound in plasma, Mean ([5]; 120 min): 14.1 ng/mL
Determined Concentration of test compound in plasma ([5]; 180 min, fumarate salt): 5.83 ng/mL and 2.57 ng/mL and 2.45 ng/mL
Determined Concentration of test compound in plasma, Mean ([5]; 180 min): 3.6 ng/mL
Determined Concentration of test compound in plasma ([5]; Predose): BLQ (Below the lower limit of quantification 0.310 ng/mL)
Determined Concentration of test compound in plasma, Mean ([5]; Predose): BLQ (Below the lower limit of quantification 0.310 ng/mL)
dissolution at 20 mg/ml in Britton-Robinson buffer solution [6]: very soluble
